Reference: patent US11401255B2, “Small molecule activators of Parkin enzyme function” (Mayo Foundation for Medical Education and Research, priority 2016, dated 2022)
Where two headings read alike, the source gives them in different places.

Columns and labels:
[1] = Caco-2 A-B permeability assay; format: in vitro ADME; details: human
Protocol: (§1) Caco-2 cells were cultivated in 75 cm^2 flasks to 80-90% of confluence according to the ATCC and Millipore recommendations (Millipore protocol note PC1060EN00P) in a humidified atmosphere at 37° C. and 5% CO2. Cells were detached with Trypsin/EDTA solution and re-suspended in the cell culture medium to a final concentration of 2×10^5 cells/mL. 500 μL of the cell suspension was added to each well of an HTS 24-multiwell insert system and 35 mL of prewarmed complete medium was added to the feeder tray. Caco-2 cells were incubated in the multiwell insert system for 10 days before the transport experiments. The medium in the filter plate and feeder tray was changed every other day. After 10 days of cell growth, the integrity of the monolayer was verified by measuring the transepithelial electrical resistance (TEER) for every well using the Millicell-ERS system ohm meter. […] The 24-well insert plate was removed from its feeder plate and placed in a new sterile 24-well transport analysis plate. The medium was aspirated and inserts washed with PBS.
(§2) To determine the rate of drug transport in apical (A) to basolateral (B) direction, 300 μL of the test compound solution in buffer (HBSS, 5.6 mM glucose, 10 mM HEPES, pH=7.4) was added into the filter wells and 1000 μL of the same buffer was added to wells in the transport analysis plate. The plates were incubated for 90 min. at 37° C. with shaking at 50 rpm. 75 μL aliquots were taken from the apical and basolateral compartment for LC-MS/MS analysis. All samples for LC-MS/MS analysis were extracted by acetonitrile (×2 volume) followed by protein sedimentation by centrifuging at 10000 rpm for 10 minutes. Supernatants were analyzed using the HPLC system coupled with a tandem mass spectrometer.
(§3) The apparent permeability (Papp) was calculated for the Caco-2 permeability assay using the following equation: Papp=(VA/((Area)×(Time))×([drug]acc/[drug]initial,d), where: […]

[2] = tested on: Caco-2 cells; assay: Caco-2 A-B permeability assay; format: in vitro ADME; details: A-B, 90 min, pH=7.4
Protocol: as §1, §2, §3

[3] = tested on: Salmonella typhimurium and Escherichia coli tester strains; assay: Bacterial reverse mutation assay (Ames Test), all tester strains; details: for mutagenic potential for the tester strains: 50, 100 and 200 μM; for precipitate in strain-compound-GM medium mixture: final concentration 200 μM
Source text: The test used amino acid-dependent strains of Salmonella typhimurium and Escherichia coli to detect point mutations which involved substitution, addition or deletion of one or a few DNA base pairs. Point mutations were introduced in the histidine (Salmonella typhimurium) or the tryptophan (Escherichia coli) operon, making the tester strains incapable of producing these amino acids. The test detected mutations that revert the mutations present in the bacteria, restoring the functional capability to synthesize histidine or tryptophan. The revertant bacteria were detected by the ability to grow in the absence of the amino acid required by the parent test strain. A mutagenic potential of a tested compound was assessed by exposing these bacterial strains to different concentrations of the compounds and estimating number of revertant colonies grown in the absence (trace quantities) of the amino acid.
DMSO was used as the negative control.
For each experiment, tester strain cultures were grown overnight in Oxoid nutrient broth #2 at 37° C. with shaking at 235 rpm to a density of 1-2×10^9 colony forming units/mL (OD540˜2).
The tester strain (10 μL of night culture) was mixed with the test agent (10 µL of the DMSO stock) and GM liquid medium (30 μL). The obtained mixture was incubated at room temperature for 5 min in a sterile 1.5 mL tube. Then, to the tube was added 200 μL of molten top agar stored at 44° C. to prevent solidifying. After mixing with a pipette, the mixture was poured onto the surface of a GM agar plate (2.0 mL of GM agar per plate). After solidifying the top agar, the plate was inverted and incubated at 37° C. for 48 hours. Then, results were expressed as number of revertant colonies per plate.

[4] = tested on: CYP450 panel (1A2, 2C9, 2C19, 2D6, 3A4); assay: P450-Glo CYP450 inhibition, whole panel; format: in vitro ADME; details: 10 μM
Protocol: All test points were performed in quadruplicates. Control membranes (without CYPs) represented the Negative control (baseline). DMSO final concentration was 0.25%.

[5] = Caco-2, pH 7.4, A-B, read-out: Permeability (individual replicates 1, 2)
[6] = Caco-2, pH 7.4, A-B, read-out: Permeability Mean

SMILES	Papp at 90 min [1, 5] [×10⁻⁶ cm/s]	Papp at 90 min [1, 6] [×10⁻⁶ cm/s]	Permeability (individual replicates 1, 2) [2]	mutagenic potential for the tester strains [3]	precipitate in strain-compound-GM medium mixture [3]	inhibition of all 5 tested CYP450 [4]	Papp at 90 min ([1]; Caco-2, A-B, pH=7.4, read-out: Permeability (individual replicates 1, 2)) [×10⁻⁶ cm/s]
O=C(Cn1cnc2c1CCCC2)Nc1ccc(-c2ccccc2)cc1 [Compound 1]	8.3	10.2	12.1 10^−6 cm/s	no mutagenic potential	Precipitate was observed	–	–
O=C(Cn1ccnc1-c1ccccn1)Nc1ccc(-c2ccccc2)cc1 [Compound 4]	14.6	15.3	–	no mutagenic potential	Precipitate was observed	did not show a significant inhibition	15.9
CC(C)(C)Sc1ccc(NC(=O)Cn2ccnc2)cc1 [Compound 3]	39.5	40.6	41.7 10^−6 cm/s	–	–	very high inhibition	–
CC(C)c1nccn1CC(=O)Nc1ccc(-c2ccccc2)cc1 [Compound 2]	17.9	18.2	18.5 10^−6 cm/s	no mutagenic potential	–	–	–
Cc1nc2c(c(N3CCCN(Cc4ccccc4)CC3)n1)CCCC2 [Compound 31]	52.8	49	45.2 10^−6 cm/s	no mutagenic potential	–	–	–
